Assay results as given in patent US20230265151A1, “GIP/GLP1 CO-AGONIST COMPOUNDS” (priority 2020, published 2023).
Read-outs that look alike come from different tables or passages of the source.

Experiments:
[1] = biological target: T1, human GIP receptor (hGIPR) (Homo sapiens, UniProt P48546); assay: [125I]-GIP binding, SPA with membranes of CHO cells expressing hGIPR
T1 construct: expressed in transfected cells; crude membranes
T1 sequence (P48546 22-466): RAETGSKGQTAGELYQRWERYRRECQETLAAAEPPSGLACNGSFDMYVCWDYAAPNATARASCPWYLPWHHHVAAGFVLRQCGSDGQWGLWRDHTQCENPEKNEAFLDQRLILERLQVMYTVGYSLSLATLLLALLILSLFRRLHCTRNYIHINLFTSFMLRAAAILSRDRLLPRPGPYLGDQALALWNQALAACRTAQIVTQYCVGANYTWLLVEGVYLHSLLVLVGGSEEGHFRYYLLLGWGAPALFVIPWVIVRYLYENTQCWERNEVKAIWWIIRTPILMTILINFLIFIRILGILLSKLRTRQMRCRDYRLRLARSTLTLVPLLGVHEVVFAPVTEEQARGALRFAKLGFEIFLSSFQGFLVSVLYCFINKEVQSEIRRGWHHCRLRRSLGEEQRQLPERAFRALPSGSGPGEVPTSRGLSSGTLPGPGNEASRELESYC

hGIPR = biological target: T2, hGIPR (Homo sapiens, UniProt P48546); assay: Functional cAMP formation (HTRF) in HEK-293 clonal cells expressing hGIPR, 0.1% bovine casein, without or with 1.0% human serum albumin; format: cell-based; conditions: for EC50: cAMP
T2 construct: expressed in transfected cells
T2 sequence (P48546 22-466): T1 sequence (P48546 22-466)
In short: (§1)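 Cells were stimulated with peptide for 30 min at 37° C, then intracellular cAMP was measured by competitive HTRF (665/620 nm ratio) and converted to nM using a cAMP standard curve. Relative EC50 and Emax came from four-parameter logistic fits of percent maximal response against peptide concentration.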

hGCGR = biological target: T3, hGCGR (Homo sapiens, UniProt P47871); assay: Functional cAMP formation (HTRF) in HEK-293 clonal cells expressing hGCGR, 0.1% bovine casein, without or with 1.0% human serum albumin; format: cell-based
T3 construct: expressed in transfected cells
In short: as §1

hGLP-1R = hGLP-1R (Homo sapiens, UniProt P43220); assay: Functional cAMP formation (HTRF) in HEK-293 clonal cells expressing hGLP-1R, 0.1% bovine casein, without or with 1.0% human serum albumin; format: cell-based; design: expressed in transfected cells; conditions: for Emax: percent of maximal response to GLP-1(7-36)NH2; for EC50: cAMP
In short: as §1

[2] = HEK293, read-out: hGIPR Emax, % ± SEM, cAMP, 37° C., 0.1% bovine casein and 1.0% human serum albumin, percent of maximal response to GIP(1-42)NH2
[3] = hGIPR EC50, nM (SEM, n), 37° C., 0.1% bovine casein (no human serum albumin), geometric mean
[4] = hGCGR EC50, nM (SEM, n), cAMP, 37° C., 0.1% bovine casein (no human serum albumin), geometric mean
[5] = hGCGR EC50, nM (SEM, n), cAMP, 37° C., 0.1% bovine casein and 1.0% human serum albumin, geometric mean (SEM, n)
[6] = HEK293, read-out: hGLP-1R Emax, % ± SEM, cAMP, 37° C., 0.1% bovine casein, arithmetic mean
[7] = hGLP-1R EC50, nM (SEM, n), 37° C., 0.1% bovine casein (no human serum albumin), geometric mean
[8] = human GIPR, geometric mean (SEM, n), read-out: Binding Affinity Ki, nM (SEM, n) hGIPR

T3 sequence (P47871 26-477): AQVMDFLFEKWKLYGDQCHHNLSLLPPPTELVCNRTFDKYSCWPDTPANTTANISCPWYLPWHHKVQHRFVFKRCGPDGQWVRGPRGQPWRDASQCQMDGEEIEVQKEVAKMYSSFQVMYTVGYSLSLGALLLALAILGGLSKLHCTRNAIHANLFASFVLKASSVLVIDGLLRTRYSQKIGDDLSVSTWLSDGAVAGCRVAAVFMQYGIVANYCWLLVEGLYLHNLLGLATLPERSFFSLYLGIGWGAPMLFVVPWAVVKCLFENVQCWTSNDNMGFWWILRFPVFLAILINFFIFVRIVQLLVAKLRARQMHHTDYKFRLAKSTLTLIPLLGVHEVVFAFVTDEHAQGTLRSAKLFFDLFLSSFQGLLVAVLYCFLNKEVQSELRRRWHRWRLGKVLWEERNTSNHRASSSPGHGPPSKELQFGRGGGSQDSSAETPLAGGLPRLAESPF
Chain of hGLP-1R (P43220 24-463): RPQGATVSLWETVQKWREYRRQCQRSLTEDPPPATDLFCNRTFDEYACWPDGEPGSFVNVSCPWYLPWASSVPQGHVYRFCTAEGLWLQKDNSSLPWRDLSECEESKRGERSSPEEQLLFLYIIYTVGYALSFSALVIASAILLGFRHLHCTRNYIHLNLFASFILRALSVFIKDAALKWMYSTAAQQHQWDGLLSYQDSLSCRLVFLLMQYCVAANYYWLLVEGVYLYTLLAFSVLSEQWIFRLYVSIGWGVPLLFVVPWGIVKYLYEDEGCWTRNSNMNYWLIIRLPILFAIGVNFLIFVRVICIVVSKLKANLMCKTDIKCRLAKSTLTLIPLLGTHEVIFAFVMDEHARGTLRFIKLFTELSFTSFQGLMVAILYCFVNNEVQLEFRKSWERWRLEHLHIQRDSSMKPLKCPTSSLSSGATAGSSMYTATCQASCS

SMILES	Ki [1]	Emax (hGIPR; [2])	EC50 (hGIPR; [3])	EC50 (hGCGR; [4])	EC50 (hGCGR; [5])	Emax (hGLP-1R; [6])	EC50 (hGLP-1R; [7])	Ki [1, 8]	further results
CC[C@H](C)[C@H](NC(=O)[C@H](CC(C)C)NC(=O)[C@](C)(Cc1ccc(O)cc1)NC(=O)[C@H](CCCCNC(=O)COCCOCCNC(=O)COCCOCCNC(=O)CC[C@H](NC(=O)CCCCCCCCCOc1ccc(C(=O)O)cc1)C(=O)O)NC(=O)[C@@H](NC(=O)[C@H](Cc1ccccc1)NC(=O)[C@H](CCCN)NC(=O)C(C)(C)NC(=O)[C@H](CCC(N)=O)NC(=O)[C@H](C)NC(=O)[C@H](CCC(N)=O)NC(=O)[C@H](CCCN)NC(=O)[C@H](CC(=O)O)NC(=O)[C@H](CC(C)C)NC(=O)[C@](C)(CC(C)C)NC(=O)[C@@H](NC(=O)C(C)(C)NC(=O)[C@H](Cc1ccc(O)cc1)NC(=O)[C@H](CC(=O)O)NC(=O)[C@H](CO)NC(=O)[C@@H](NC(=O)[C@](C)(Cc1ccccc1F)NC(=O)[C@@H](NC(=O)CNC(=O)[C@H](CCC(=O)O)NC(=O)C(C)(C)NC(=O)[C@@H](N)Cc1ccc(O)cc1)[C@@H](C)O)[C@@H](C)O)[C@@H](C)CC)[C@@H](C)CC)C(=O)N[C@@H](CCCCNC(=O)COCCOCCNC(=O)COCCOCCNC(=O)CC[C@H](NC(=O)CCCCCCCCCOc1ccc(C(=O)O)cc1)C(=O)O)C(=O)NCC(=O)NCC(=O)N1CCC[C@H]1C(=O)N[C@@H](CO)C(=O)N[C@@H](CO)C(=O)NCC(=O)N[C@@H](C)C(=O)N1CCC[C@H]1C(=O)N1CCC[C@H]1C(=O)N1CCC[C@H]1C(=O)N[C@@H](CO)C(N)=O [Example 492]	0.0264 nM	88.7%	0.0125 nM	> 9950 nM	> 9950 nM	117%	0.143 nM	–	–
CC[C@H](C)[C@H](NC(=O)[C@H](CCCN)NC(=O)[C@H](CC(=O)O)NC(=O)[C@H](CC(C)C)NC(=O)[C@](C)(CC(C)C)NC(=O)[C@@H](NC(=O)C(C)(C)NC(=O)[C@H](Cc1ccc(O)cc1)NC(=O)[C@H](CC(=O)O)NC(=O)[C@H](CO)NC(=O)[C@@H](NC(=O)[C@](C)(Cc1ccccc1F)NC(=O)[C@@H](NC(=O)CNC(=O)[C@H](CCC(=O)O)NC(=O)C(C)(C)NC(=O)[C@@H](N)Cc1ccc(O)cc1)[C@@H](C)O)[C@@H](C)O)[C@@H](C)CC)C(=O)N[C@@H](C)C(=O)N[C@@H](CCC(N)=O)C(=O)NC(C)(C)C(=O)N[C@@H](CCCN)C(=O)N[C@@H](Cc1ccccc1)C(=O)N[C@H](C(=O)N[C@@H](CCCCNC(=O)COCCOCCNC(=O)COCCOCCNC(=O)COCCOCCNC(=O)CC[C@H](NC(=O)CCCCCCCCCOc1ccc(C(=O)O)cc1)C(=O)O)C(=O)N[C@@](C)(Cc1ccc(O)cc1)C(=O)N[C@@H](CC(C)C)C(=O)N[C@H](C(=O)N[C@@H](CCCCNC(=O)COCCOCCNC(=O)COCCOCCNC(=O)COCCOCCNC(=O)CC[C@H](NC(=O)CCCCCCCCCOc1ccc(C(=O)O)cc1)C(=O)O)C(=O)NCC(=O)NCC(=O)N1CCC[C@H]1C(=O)N[C@@H](CO)C(=O)N[C@@H](CO)C(=O)NCC(=O)N[C@@H](C)C(=O)N1CCC[C@H]1C(=O)N1CCC[C@H]1C(=O)N1CCC[C@H]1C(=O)N[C@@H](CO)C(N)=O)[C@@H](C)CC)[C@@H](C)CC [Example 481]	0.0266 nM	82.7%	0.0181 nM	> 9950 nM	> 9950 nM	111%	0.279 nM	–	Emax (hGIPR; HEK293, read-out: hGIPR Emax, % ± SEM, cAMP, 37° C., 0.1% bovine casein, percent of maximal response to GIP(1-42)NH2, arithmetic mean): 97.9%; Emax (hGLP-1R; HEK293, read-out: hGLP-1R Emax, % ± SEM, cAMP, 37° C., 0.1% bovine casein and 1.0% human serum albumin): 112%; EC50 (hGLP-1R; hGLP-1R EC50, nM (SEM, n), 37° C., 0.1% bovine casein and 1.0% human serum albumin, geometric mean (SEM, n)): 6.16 nM
CC[C@H](C)[C@H](NC(=O)[C@H](CC(C)C)NC(=O)[C@](C)(Cc1ccc(O)cc1)NC(=O)[C@@H](CCC(=O)O)NC(=O)[C@@H](NC(=O)[C@H](Cc1ccccc1)NC(=O)[C@H](CCC(=O)O)NC(=O)C(C)(C)NC(=O)[C@H](CCC(N)=O)NC(=O)[C@H](C)NC(=O)[C@H](CCCCNC(=O)COCCOCCNC(=O)COCCOCCNC(=O)CC[C@H](NC(=O)CCCCCCCCCCCCC(=O)O)C(=O)O)NC(=O)[C@H](CCCN)NC(=O)[C@H](CC(=O)O)NC(=O)[C@H](CC(C)C)NC(=O)[C@](C)(CC(C)C)NC(=O)[C@@H](NC(=O)[C@H](CO)NC(=O)[C@H](CCc1ccc(O)cc1)NC(=O)[C@H](CC(=O)O)NC(=O)[C@H](CO)NC(=O)[C@@H](NC(=O)[C@](C)(Cc1ccccc1F)NC(=O)[C@@H](NC(=O)CNC(=O)[C@H](CCC(=O)O)NC(=O)C(C)(C)NC(=O)[C@@H](N)Cc1ccc(O)cc1)[C@@H](C)O)[C@@H](C)O)[C@@H](C)CC)[C@@H](C)CC)C(=O)N[C@@H](CCC(=O)O)C(=O)NCC(=O)NCC(=O)N[C@@H](CCCCNC(=O)COCCOCCNC(=O)COCCOCCNC(=O)CC[C@H](NC(=O)CCCCCCCCCCCCC(=O)O)C(=O)O)C(=O)N[C@@H](CO)C(=O)N[C@@H](CO)C(=O)NCC(=O)N[C@@H](C)C(=O)N1CCC[C@H]1C(=O)N1CCC[C@H]1C(=O)N1CCC[C@H]1C(=O)N[C@@H](CO)C(N)=O [Example 59]	–	–	–	–	–	–	–	0.171 nM	Emax (hGIPR; HEK293, 0.1% bovine casein and 1.0% human serum albumin, 37° C., percent of maximal response to GIP(1-42)NH2, read-out: hGIPR Emax, % ± SEM): 90.3 ± 3.64%; Emax (hGIPR; HEK293, percent of maximal response to GIP(1-42)NH2, 37° C., 0.1% bovine casein, arithmetic mean, read-out: hGIPR Emax, % ± SEM): 89.2 ± 4.62%; EC50 (hGIPR; incubated at 37° C., 0.1% bovine casein (no human serum albumin), geometric mean, read-out: hGIPR EC50, nM (SEM, n)): 0.024 nM; EC50 (hGCGR; 0.1% bovine casein and 1.0% human serum albumin, 37° C., geometric mean, read-out: hGCGR EC50, nM (SEM, n)): > 9950 nM; EC50 (hGCGR; cAMP, incubated at 37° C., 0.1% bovine casein (no human serum albumin), geometric mean, read-out: hGCGR EC50, nM (SEM, n)): > 9950 nM; EC50 (hGLP-1R; incubated at 37° C., 0.1% bovine casein (no human serum albumin), geometric mean, read-out: hGLP-1R EC50, nM (SEM, n)): 0.202 nM
CC[C@H](C)[C@H](NC(=O)[C@H](CC(C)C)NC(=O)[C@](C)(Cc1ccc(O)cc1)NC(=O)[C@H](CCCCNC(=O)COCCOCCNC(=O)COCCOCCNC(=O)CC[C@H](NC(=O)CCCCCCCCCCCCC(=O)O)C(=O)O)NC(=O)[C@@H](NC(=O)[C@H](Cc1ccccc1)NC(=O)[C@H](CCCN)NC(=O)C(C)(C)NC(=O)[C@H](CCC(N)=O)NC(=O)[C@H](C)NC(=O)[C@H](CCC(N)=O)NC(=O)[C@H](CCCN)NC(=O)[C@H](CC(=O)O)NC(=O)[C@H](CC(C)C)NC(=O)[C@](C)(CC(C)C)NC(=O)[C@@H](NC(=O)C(C)(C)NC(=O)[C@@H](NC(=O)[C@H](CC(=O)O)NC(=O)[C@H](CO)NC(=O)[C@@H](NC(=O)[C@](C)(Cc1ccccc1F)NC(=O)[C@@H](NC(=O)CNC(=O)[C@H](CCC(=O)O)NC(=O)C(C)(C)NC(=O)[C@@H](N)Cc1ccc(O)cc1)[C@@H](C)O)[C@@H](C)O)C(C)C)[C@@H](C)CC)[C@@H](C)CC)C(=O)N[C@@H](CCCCNC(=O)COCCOCCNC(=O)COCCOCCNC(=O)CC[C@H](NC(=O)CCCCCCCCCCCCC(=O)O)C(=O)O)C(=O)NCC(=O)NCC(=O)N1CCC[C@H]1C(=O)N[C@@H](CO)C(=O)N[C@@H](CO)C(=O)NCC(=O)N[C@@H](C)C(=O)N1CCC[C@H]1C(=O)N1CCC[C@H]1C(=O)N1CCC[C@H]1C(=O)N[C@@H](CO)C(N)=O [Example 448]	–	–	–	–	–	–	–	0.0314 nM	Emax (hGIPR; HEK293, cAMP, 37° C., 0.1% bovine casein, percent of maximal response to GIP(1-42)NH2, arithmetic mean, read-out: hGIPR Emax, % ± SEM): 105%; EC50 (hGIPR; 37° C., 0.1% bovine casein (no human serum albumin), geometric mean, read-out: hGIPR EC50, nM (SEM, n)): 0.0164 nM; EC50 (hGIPR; 37° C., 0.1% bovine casein and 1.0% human serum albumin, geometric mean (SEM, n), read-out: hGIPR EC50, nM (SEM, n)): 1.41 nM; EC50 (hGCGR; cAMP, 37° C., 0.1% bovine casein (no human serum albumin), geometric mean, read-out: hGCGR EC50, nM (SEM, n)): > 9950 nM; EC50 (hGCGR; cAMP, 37° C., 0.1% bovine casein and 1.0% human serum albumin, geometric mean (SEM, n), read-out: hGCGR EC50, nM (SEM, n)): > 9950 nM; EC50 (hGLP-1R; 37° C., 0.1% bovine casein (no human serum albumin), geometric mean, read-out: hGLP-1R EC50, nM (SEM, n)): 0.157 nM
